Laboratory results as given in PubChem BioAssay AID1963975 (Molecular Pharmacology Branch, DTP, NCI, 2024).

Test system: 624824-186-R-J2-PDC multicell spheroids, viability
Test: Anticancer human tumor 624824-186-R-J2-PDC patient-derived colon adenocarcinoma cell line growth inhibition [PI3K]
Conditions: for IC50: curve of first compound; for viability, T/C: stronger effect = lower value
Procedure, shortened: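 Complex 3D spheroids (cancer cells + endothelial HUVEC + mesenchymal stem cells); drug pairs of targeted agent x inavolisib/alpelisib/duvelisib/copanlisib; half-log series from ~Cmax, max 10 microM if Cmax unknown; endpoint viability.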

[1] = second compound 0.0316 µM, first compound 0.0316 µM
[2] = second compound 0.0316 µM, first compound 0.1 µM
[3] = second compound 0.0316 µM, first compound 0.316 µM
[4] = second compound 0.0316 µM, first compound 1 µM
[5] = second compound 0.0316 µM, first compound 3.16 µM
[6] = second compound 0.0316 µM, first compound 10 µM
[7] = second compound 0.1 µM, first compound 0.0316 µM
[8] = second compound 0.1 µM, first compound 0.1 µM
[9] = second compound 0.1 µM, first compound 0.316 µM
[10] = second compound 0.1 µM, first compound 1 µM
[11] = second compound 0.1 µM, first compound 3.16 µM
[12] = second compound 0.1 µM, first compound 10 µM
[13] = second compound 0.316 µM, first compound 0.0316 µM
[14] = second compound 0.316 µM, first compound 0.1 µM
[15] = second compound 0.316 µM, first compound 0.316 µM
[16] = second compound 0.316 µM, first compound 1 µM
[17] = second compound 0.316 µM, first compound 3.16 µM
[18] = second compound 0.316 µM, first compound 10 µM
[19] = second compound 1 µM, first compound 0.0316 µM
[20] = second compound 1 µM, first compound 0.1 µM
[21] = second compound 1 µM, first compound 0.316 µM
[22] = second compound 1 µM, first compound 1 µM
[23] = second compound 1 µM, first compound 3.16 µM
[24] = second compound 1 µM, first compound 10 µM
[25] = second compound 0.00316 µM, first compound 0.0316 µM
[26] = second compound 0.00316 µM, first compound 0.1 µM
[27] = second compound 0.01 µM, first compound 0.0316 µM
[28] = second compound 0.01 µM, first compound 0.1 µM
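Further: spheroids exposed to agents for 7 days before viability read.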
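Wherever viability, T/C is given: 100% = DMSO vehicle treated spheroids.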

For `CNC(=O)c1ccc(N2C(=S)N(c3ccc(C#N)c(C(F)(F)F)c3)C(=O)C2(C)C)cc1F` + Cc1nc(NC(=O)N2CCCC2C(N)=O)sc1-c1ccnc(C(C)(C)C(F)(F)F)c1, the IC50 (second compound 0.0316 µM) was > 10 µM, the IC50 (second compound 0.1 µM) was > 10 µM and the IC50 (second compound 0.316 µM) was > 10 µM. The IC50 (second compound 1 µM) was > 10 µM, the IC50 (second compound 3.16 µM) was > 10 µM and the IC50 (second compound 10 µM) was > 10 µM. It also gave a viability, T/C [1] of 87.5%, a viability, T/C [2] of 108% and a viability, T/C [3] of 102%. It also gave a viability, T/C [4] of 108%, a viability, T/C [5] of 94.1% and a viability, T/C [6] of 121%. It also gave a viability, T/C [7] of 85.6%, a viability, T/C [8] of 87.5% and a viability, T/C [9] of 78.3%. The viability, T/C [10] was 90.6%, the viability, T/C [11] was 90.4% and the viability, T/C [12] was 114%. The viability, T/C [13] was 76.1%, the viability, T/C [14] was 86.1% and the viability, T/C [15] was 97.8%. For the same molecule, the viability, T/C [16] was 94.4%, the viability, T/C [17] was 81.9% and the viability, T/C [18] was 96.2%. It also gave a viability, T/C [19] of 79.1%, a viability, T/C [20] of 78.9% and a viability, T/C [21] of 99%. For the same molecule, the viability, T/C [22] was 96.7%, the viability, T/C [23] was 113% and the viability, T/C [24] was 90.9%. The viability, T/C (second compound 3.16 µM, first compound 0.0316 µM) was 81.3%, the viability, T/C (second compound 3.16 µM, first compound 0.1 µM) was 92.2% and the viability, T/C (second compound 3.16 µM, first compound 0.316 µM) was 89.1%. For the same molecule, the viability, T/C (second compound 3.16 µM, first compound 1 µM) was 84.7%, the viability, T/C (second compound 3.16 µM, first compound 3.16 µM) was 101% and the viability, T/C (second compound 3.16 µM, first compound 10 µM) was 86.4%. It also gave a viability, T/C (second compound 10 µM, first compound 0.0316 µM) of 81.5%, a viability, T/C (second compound 10 µM, first compound 0.1 µM) of 74.8% and a viability, T/C (second compound 10 µM, first compound 0.316 µM) of 73%. The viability, T/C (second compound 10 µM, first compound 1 µM) was 73.9%, the viability, T/C (second compound 10 µM, first compound 3.16 µM) was 79.1% and the viability, T/C (second compound 10 µM, first compound 10 µM) was 65%.
`CCCS(=O)(=O)Nc1ccc(F)c(C(=O)c2c[nH]c3ncc(-c4ccc(Cl)cc4)cc23)c1F` + CC(Nc1ccc2c(c1)OCCn1cc(N3C(=O)OCC3C(F)F)nc1-2)C(N)=O showed an IC50 (second compound 0.00316 µM) of 10 µM, an IC50 (second compound 0.01 µM) of 8.49 µM and an IC50 (second compound 0.0316 µM) of 7.85 µM. The IC50 (second compound 0.1 µM) was 6.22 µM, the IC50 (second compound 0.316 µM) was 4.65 µM and the IC50 (second compound 1 µM) was 3.58 µM. The viability, T/C [25] was 78.1%, the viability, T/C [26] was 112% and the viability, T/C (second compound 0.00316 µM, first compound 0.316 µM) was 87.8%. The viability, T/C (second compound 0.00316 µM, first compound 1 µM) was 119%, the viability, T/C (second compound 0.00316 µM, first compound 3.16 µM) was 113% and the viability, T/C (second compound 0.00316 µM, first compound 10 µM) was 50%. It also gave a viability, T/C [27] of 92.7%, a viability, T/C [28] of 89.7% and a viability, T/C (second compound 0.01 µM, first compound 0.316 µM) of 73.6%. It also gave a viability, T/C (second compound 0.01 µM, first compound 1 µM) of 82.7%, a viability, T/C (second compound 0.01 µM, first compound 3.16 µM) of 109% and a viability, T/C (second compound 0.01 µM, first compound 10 µM) of 43.5%. It also gave a viability, T/C [1] of 82.7%, a viability, T/C [2] of 88.3% and a viability, T/C [3] of 73.5%. For the same molecule, the viability, T/C [4] was 89.1%, the viability, T/C [5] was 108% and the viability, T/C [6] was 39.7%. The viability, T/C [7] was 80%, the viability, T/C [8] was 89.8% and the viability, T/C [9] was 81.9%. It also gave a viability, T/C [10] of 72.3%, a viability, T/C [11] of 76.3% and a viability, T/C [12] of 32.7%. It also gave a viability, T/C [13] of 67.9%, a viability, T/C [14] of 78.5% and a viability, T/C [15] of 71.7%. For the same molecule, the viability, T/C [16] was 68%, the viability, T/C [17] was 62.1% and the viability, T/C [18] was 26.8%. The viability, T/C [19] was 80.5%, the viability, T/C [20] was 68.6% and the viability, T/C [21] was 68.7%. For the same molecule, the viability, T/C [22] was 53.2%, the viability, T/C [23] was 63.1% and the viability, T/C [24] was 23.8%.
With `CC(C)n1nc(-c2ccc3oc(N)nc3c2)c2c(N)ncnc21` + COc1c(OCCCN2CCOCC2)ccc2c3n(c(=NC(=O)c4cnc(N)nc4)nc12)CCN3 the IC50 (second compound 0.00316 µM) was > 0.1 µM, the IC50 (second compound 0.01 µM) was > 0.1 µM and the IC50 (second compound 0.0316 µM) was > 0.1 µM. The IC50 (second compound 0.1 µM) was > 0.1 µM, the IC50 (second compound 0.316 µM) was 0.0753 µM and the IC50 (second compound 1 µM) was > 0.1 µM. It also gave a viability, T/C (second compound 0.00316 µM, first compound 0.000316 µM) of 82.8%, a viability, T/C (second compound 0.00316 µM, first compound 0.001 µM) of 95.9% and a viability, T/C (second compound 0.00316 µM, first compound 0.00316 µM) of 82.4%. The viability, T/C (second compound 0.00316 µM, first compound 0.01 µM) was 99.5%, the viability, T/C [25] was 84% and the viability, T/C [26] was 70.1%. The viability, T/C (second compound 0.01 µM, first compound 0.000316 µM) was 104%, the viability, T/C (second compound 0.01 µM, first compound 0.001 µM) was 83.2% and the viability, T/C (second compound 0.01 µM, first compound 0.00316 µM) was 93.2%. It also gave a viability, T/C (second compound 0.01 µM, first compound 0.01 µM) of 86.7%, a viability, T/C [27] of 80.7% and a viability, T/C [28] of 68.9%. For the same molecule, the viability, T/C (second compound 0.0316 µM, first compound 0.000316 µM) was 90.3%, the viability, T/C (second compound 0.0316 µM, first compound 0.001 µM) was 78.8% and the viability, T/C (second compound 0.0316 µM, first compound 0.00316 µM) was 81.4%. The viability, T/C (second compound 0.0316 µM, first compound 0.01 µM) was 69.6%, the viability, T/C [1] was 69.9% and the viability, T/C [2] was 54.5%. For the same molecule, the viability, T/C (second compound 0.1 µM, first compound 0.000316 µM) was 70.1%, the viability, T/C (second compound 0.1 µM, first compound 0.001 µM) was 77.3% and the viability, T/C (second compound 0.1 µM, first compound 0.00316 µM) was 58.5%. For the same molecule, the viability, T/C (second compound 0.1 µM, first compound 0.01 µM) was 57.3%, the viability, T/C [7] was 58.3% and the viability, T/C [8] was 49.7%. It also gave a viability, T/C (second compound 0.316 µM, first compound 0.000316 µM) of 70.6%, a viability, T/C (second compound 0.316 µM, first compound 0.001 µM) of 60.7% and a viability, T/C (second compound 0.316 µM, first compound 0.00316 µM) of 60.7%. The viability, T/C (second compound 0.316 µM, first compound 0.01 µM) was 59.1%, the viability, T/C [13] was 53.7% and the viability, T/C [14] was 47.8%. The viability, T/C (second compound 1 µM, first compound 0.000316 µM) was 64.6%, the viability, T/C (second compound 1 µM, first compound 0.001 µM) was 52.7% and the viability, T/C (second compound 1 µM, first compound 0.00316 µM) was 55%. The viability, T/C (second compound 1 µM, first compound 0.01 µM) was 61.2%, the viability, T/C [19] was 56.1% and the viability, T/C [20] was 52%.
